Experimental data: patent publication US20030180345A1, “Compositions and methods for inhibiting islet dysfunction and autoimmune disorders” (priority 2000, published 2003)
Read-outs that look alike come from different tables or passages of the source.

Experiments:
fetal islet cells = assay: IL1β-induced apoptosis in cultured fetal islets (TUNEL); format: cell-based, Wistar rats; conditions: 50 U/ml IL 1β for 24 hours; C and LP groups
Protocol: The effect of in vitro taurine on the effect of IL1β-induced apoptosis was assessed. Fetal islets were isolated as described above in Example 1. On the 5th day of culture, islets were rinsed twice with serum free DME/F12 medium (1:1, v/v, Gibco, Paisley, Scotland) and were incubated in this medium supplemented with taurine at 0.3 or 3 mmol/l for 48 hours. For the final 24 hours of this incubation, IL1β (Endogen, Woburn, Mass.) was added to the incubation medium at a level of 50 U/ml. Apoptosis was quantified by confocal microscopy using TUNEL method, as outlined in Example 1.

fetal islet β cells = assay: SNP-induced apoptosis in cultured fetal islets (TUNEL, confocal microscopy); format: cell-based, Wistar rats; conditions: SNP 100 μmol/l
Protocol: Animals and Diets. Adult virgin female Wistar rats were caged overnight with males and copulation was verified the next morning. Animals were maintained at 25° C. with a 10 h-14 h dark-light cycle. Pregnant rats were divided into two groups and fed one of the following isocaloric diets: either a control diet (C) containing 20% protein or a low protein diet (LP) containing 8% protein. The composition of the diet was as described previously by Snoeck et al. 1990 (Biol. Neonate 57, 107-118). The diets were purchased from Hope Farms (Woerden, Holland). Animals in both the groups had free access to water at all times. At 21.5 days of gestation, females were sacrificed by decapitation and fetuses removed.
Islet culture and treatment. Fetal islets were isolated as described by Mourmeaux et al. 1985 (Molecular and Cellular Endocrinology 39:237-246). Islets were cultured in 35 mm Petri-dishes (Falcon plastics, Los Angeles, Calif.) in RPMI 1640 medium (Gibco, Grand Island, N.Y., USA) with 10% Fetal Bovine Serum and antibiotics (penicillin 200 U/ml, streptomycin 0.2 mg/ml). Petri dishes were incubated at 37° C. with 5% CO2 in air. The culture medium was changed daily after the second day. On the 5th day of culture, islets were rinsed twice with serum free DME/F12 medium (1:1, v/v, Gibco, Paisley, Scotland) and subsequently incubated for 42 hours in this medium. […]
TUNEL method for evaluating apoptosis. Apoptosis was evaluated by the TUNEL method described herein, and visualized with confocal microscopy. Cultured islets were fixed in methanol and stored at −20° C. until analysis. The tissue was then washed with phosphate buffered saline (PBS) for 3 min, and a terminal deoxynucleotidyl transferase (TdT) reaction buffer (50 μl) was added. The 50 μl of TdT solution was prepared using 10 μl of 5× concentrated buffer solution (1 mol/l potassium cacodylate; 125 mmol/l Tris-HCl, pH 6.6; 1.26 mg bovine serum albumin). Cobalt chloride (5 μl of 25 mmol/l), 0.5 μl (12.5 units) of TdT (both from Boehringer Mannheim, Germany), and 0.25 nmoles of BODIPY-FL-X-14-dUTP (Molecular Probes, Eugene, Oreg. USA) were added, along with distilled water, up to 50 μl. Islets were incubated in Petri dishes with the TdT reaction buffer for 60 min at 37° C., then rinsed twice with 15 mmol/l EDTA (pH 8.0) in PBS and once with 0.1% Triton X-100 in PBS. Then, 2 ml of PBS containing 2.5 μg/ml of propidium iodide (Molecular Probes, Eugene, Oreg. USA) was added to the dishes for 5 min. Finally, islet cells were washed with 15 mmol/l EDTA (pH 8.0). Islet cells were then double-labelled for apoptotic nuclei, showing the BODIPY-FL-dUTP label in […] and total nuclei with propidium iodide in red.
Confocal microscopy. Staining probes were visualised through a confocal laser scanning microscopy system (MRC-1024 UV; BIO-RAD, UK) equipped with Argon ion and Krypton/Argon ion lasers. BODIPY-FL was excited at 503 nm, ethidium bromide at 510 nm, propidium iodide at 536 nm and Hoechst 33342 at 346 nm. The emissions were recorded respectively at 522/32 nm, 605/32 nm and 455/30 nm. Four to six optical sections were collected at every 15 μm through the islet. The number of BODIPY-FL-positive or ethidium bromide-positive nuclei were reported and expressed as a percentage of the total number of nuclei.
Animals, diets, and fetal islet isolation procedures were conducted as described in Example 1.

[1] = SIN-1
Protocol: Chemiluminescence measurements. Luminol (5-amino-2,3-dihydro-1-4-phtalazinedione) at 400 μmol/l (Sigma Chemical Co.), taurine (0.3 or 3 mmol/l), methionine (0.1 or 1 mmol/l) and β-alanine (0.3 or 3 mmol/l) stock solutions were prepared in PBS. Sydnonimine (SIN-1), also known as 3-morpholinosydnonimine, a source of peroxynitrite, was purchased from Sigma Chemical Co. SIN-1 was prepared as 100 μmol in 1 mol/l NaOH. A reaction was initiated by simultaneous injection of luminol and SIN-1 into wells containing PBS either alone or with supplemental amino acid levels as noted above. Chemiluminescence emitted by luminol in the presence of peroxynitrite was measured every 30 seconds over 20 minutes in a chemifluorophotometer (MicroLumat LB96P, EG&G BERTHOLD), and was quantified as light intensity (10^8 RLU).
Nitric oxide is a reactive free radical which leads to peroxynitrite formation, another reactive free radical, by interaction with superoxide (NO+OO^−→ONOO^−). […] Luminol-derived chemiluminescence induced by peroxynitrite produced by the decomposition of sydnonimine (SIN-1) was evaluated to investigate the possibility that taurine quenched the peroxynitrite formed from NO.

Question: For “IL 1β: macrophage-derived proinflammatory cytokine used to induce islet cell apoptosis”, which “apoptosis level of fetal islets” value (fetal islet cells) is on record?
Answer: increased the apoptosis level

Question: With `CC(=O)N(O)CCCCCNC(=O)CCC(=O)N(O)CCCCCNC(=O)CCC(=O)N(O)CCCCCN` [DFO, desferioxamine, reference compound] as the compound, how does the “reduction of the cell death induced by SNP” value (fetal islet β cells; LP and C islets, data not shown) read?
Answer: about 30%

Question: What does the source list for `CSCC[C@H](N)C(=O)O` [methionine, L-Methionine]?
Answer: apoptosis rate (fetal islet β cells; 0.1 mmol/l methionine, regardless of diet): significantly decreased; apoptosis rate (fetal islet β cells; 1.0 mmol/l methionine vs physiological concentration): did not provide additional protection; luminol chemiluminescence (peroxynitrite quenching) ([1]; methionine 0.1 or 1 mmol/l): No change

Question: Which “rate of apoptosis / protection against damage induced by NO” value (fetal islet β cells; β-alanine 0.3 or 3 mmol/l) does the source give for `NCCC(=O)O` [β-alanine, 3-aminopropanoic acid, reference compound] here?
Answer: no protective effect

Question: What about the “luminol chemiluminescence (peroxynitrite quenching)” value ([1]; β-alanine 0.3 or 3 mmol/l) of the same compound?
Answer: no change
